{
  "source": "patent US10253085B2",
  "about": "“CD31 peptides for the treatment of thrombotic or autoimmune disorders” (INSERM (INSTITUT NATIONAL DE LA SANTE ET DE LA RECHERCHE …, priority 2008, dated 2019)",
  "key": {"[1]": {"tested_on": "spleen cells from CD31^−/− mice", "assay": "Proliferation in response to TCR stimulation, CD31-/- spleen cells", "assay_type": "cell-based, mouse", "procedure": "CD8^+ T cell-mediated cytolytic activity against allogeneic mouse aortic smooth muscle cells and measurement of macrophage gelatinase (MMP-2/9) activity were performed as previously described for human cells in Caligiuri et al. (2006 Arterioscler Thromb Vasc Biol 26:618-623) using kits and reagents from Invitrogen. Briefly, primary cultures of FVB/N mouse aorta smooth muscle cells were labelled with the lipophylic tracer DIO (green) and co-cultured for 3 hours with CD8+ T cell-enriched spleen cells from C57Bl/6 mice (n=3 scramble peptide and n=3 peptide 551-574, 50 μM). Cytolysis was evaluated by intracellular accumulation of propidium iodide (PI). Cells were analysed by flow cytometry and the % of cytolysis was calculated by expressing the number of dead (PI+) cells among the target (DIO+) cells. Intracellular MMP-2/9 (gelatinase) activity was measured by flow cytometry in 7-day bone-marrow derived macrophages from C57Bl/6 mice (n=3 scramble peptide and n=3 peptide 551-574, 50 μM) three hours after the incorporation of OregonGreen® gelatine (MFI). T-cell proliferation was performed using either human peripheral blood mononuclear cells of spleen cells from C57Bl/6 (CD31^+/+) and CD31^−/− mice (Charles River France) as previously described (Caligiuri et al. 2005 Arterioscler Thromb Vasc Biol 25:1659-1664). Briefly, cells were plated in triplicates at 0.2×10^6 cells/well in a U bottom 96-well plate in complete medium (RPMI 1640, 1% pyruvate, 1% glutamine, 1% penicillin-streptomicyne-fungizone, 10% decomplemented fetal calf serum, all from Invitrogen) containing 1 μg/ml anti-mouse CD3/CD28 or 5 μg/ml anti-human CD3 antibodies (BD) as appropriate. CD31 (551-574) and scramble peptide at 25, 50 and 100 μM final concentration were deposited in the wells just before cell plating. Plated cells were cultured for 72 hours in 5% CO2 at 37° C. (^3H) thymidine (0.5 μCi/well) was added for the last 16 hours and proliferation evaluated using a Tomtec harvester and analysis on a Wallac micro beta counter. Data are expressed as mean±SEM of cpm in triplicates."}, "[2]": {"tested_on": "BALB/c mice primed with TNCB", "assay": "Delayed type hypersensitivity (DTH) suppression model", "assay_type": "in vivo, mouse", "procedure": "Delayed type hypersensitivity (DTH) suppression was evaluated as described in the “Current Protocols in Immunology (2001) 4.0.1-4.0.2 Unit 4.2”. Briefly, TNCB (2-chloro-1,3,5-trinitrobenzene, Fluka #79874) was dissolved in acetone/olive oil (1:1 v/v) at a concentration of 10 mg/ml. BALB/c mice (n=6/group) were primed by painting the shaved regions of the abdomen a with a total 0.2 ml of the preparation (n=6/group). The experiment included 3 groups for peptide 551-574 (10, 50, 100 μM) and 1 group treated with scramble peptide at 100 μM). Five days after priming, 10 μl of the TNCB-solvent mixture was painted on the right pinna, 30 minutes after subcutaneous (interscapolar) administration of the peptide 551-574 or the scramble peptide. Ear thickness increases were calculated by subtracting the thickness of the right and the left pinna of each mouse (right-left/left×100), measured at 24 h with a dial caliper (“Pocotest”, Kroeplin Längenmesstechnick). The measure was performed 5 times on each ear and averaged for further analysis. The immunosuppressive effect of the peptide was calculated as % suppression=(1−ΔTE/ΔTS)×100, where ΔT=(ear thickness 24 hr after elicitation)−(baseline ear thickness), […]. Data are expressed as mean±SEM."}, "[3]": {"tested_on": "apolipoprotein E^−/− mice", "assay": "Angiotensin II infusion into aged apolipoprotein E-/- mice: atherosclerotic lesion size and aneurysm formation", "assay_type": "in vivo, mouse", "procedure": "Male 28-week old apolipoprotein E^−/− mice (n=8-10 mice/group) from our breeding facility were maintained on a regular chow diet and kept under standard conditions. Acceleration of atherosclerosis and aneurysm formation was induced by subcutaneous angiotensin II (Sigma, #A9525) infusion (1 mg/kg/d) for 28 days using osmotic minipumps (Alzet, #2004) as previously described (Daugherty et al. J Clin Invest 105:1605-1612). All experiments were approved by our institutional Ethical committee. Atherosclerotic lesion size was measured as previously described (Caligiuri et al. 2005 Arterioscler Thromb Vasc Biol 25:1659-1664). These experiments were repeated twice with similar results."}, "[4]": {"tested_on": "MMP-2/9 (gelatinase) activity in bone-marrow derived macrophages", "assay": "Macrophage gelatinase (MMP-2/9) activity", "assay_type": "cell-based, mouse", "conditions": "peptide 50 μM", "procedure": "CD8^+ T cell-mediated cytolytic activity against allogeneic mouse aortic smooth muscle cells and measurement of macrophage gelatinase (MMP-2/9) activity were performed as previously described for human cells in Caligiuri et al. (2006 Arterioscler Thromb Vasc Biol 26:618-623) using kits and reagents from Invitrogen. Briefly, primary cultures of FVB/N mouse aorta smooth muscle cells were labelled with the lipophylic tracer DIO (green) and co-cultured for 3 hours with CD8+ T cell-enriched spleen cells from C57Bl/6 mice (n=3 scramble peptide and n=3 peptide 551-574, 50 μM). Cytolysis was evaluated by intracellular accumulation of propidium iodide (PI). Cells were analysed by flow cytometry and the % of cytolysis was calculated by expressing the number of dead (PI+) cells among the target (DIO+) cells. Intracellular MMP-2/9 (gelatinase) activity was measured by flow cytometry in 7-day bone-marrow derived macrophages from C57Bl/6 mice (n=3 scramble peptide and n=3 peptide 551-574, 50 μM) three hours after the incorporation of OregonGreen® gelatine (MFI). […] (^3H) thymidine (0.5 μCi/well) was added for the last 16 hours and proliferation evaluated using a Tomtec harvester and analysis on a Wallac micro beta counter. Data are expressed as mean±SEM of cpm in triplicates."}},
  "note": "Residues, ends and D or L forms follow the SMILES beside them.",
  "data": [
    {"smiles": "CSCC[C@H](NC(=O)[C@H](CO)NC(=O)[C@@H](N)CO)C(=O)N[C@@H](CCCNC(=N)N)C(=O)N[C@H](C(=O)N[C@@H](CO)C(=O)N1CCC[C@H]1C(=O)N[C@@H](CCCNC(=N)N)C(=O)N[C@@H](CO)C(=O)N[C@@H](CO)C(=O)N[C@H](C(=O)N[C@@H](CC(C)C)C(=O)N[C@@H](C)C(=O)N[C@H](C(=O)N[C@@H](CCCNC(=N)N)C(=O)N[C@H](C(=O)N[C@@H](Cc1ccccc1)C(=O)N[C@@H](CC(C)C)C(=O)N[C@@H](C)C(=O)N1CCC[C@H]1C(=O)N[C@@H](Cc1c[nH]c2ccccc12)C(=O)N[C@@H](CCCCN)C(=O)N[C@@H](CCCCN)C(=O)O)C(C)C)C(C)C)[C@@H](C)O)[C@@H](C)O", "note": "[peptide 551-574] (H-SSMRTSPRSSTLAVRVFLAPWKK-OH)", "values": [
      {"measurement": "proliferation of CD31-/- spleen cells", "setting": "[1]; highest dose, 100 μM", "result": "effect at 100 μM dose also on cells lacking CD31"},
      {"measurement": "proliferation of CD31-/- spleen cells", "setting": "[1]; highest dose, 100 μM, listed as mouse CD31 peptide 551-574", "result": "only the highest dose of the peptide affect proliferation"},
      {"measurement": "proliferation of CD31-/- spleen cells", "setting": "[1]; low dose of the peptide", "result": "no effect"},
      {"measurement": "immunosuppression in DTH model", "setting": "[2]; single subcutaneous administration of 50 μM", "result": "Effective immunosuppression"},
      {"measurement": "suppression of distal recall of a hapten-elicited specific immune response (ear thickness)", "setting": "[2]; single subcutaneous administration, peptide 10, 50, 100 μM, scramble 100 μM", "result": "suppressed in a dose-dependent manner"},
      {"measurement": "formation of atherothrombotic abdominal aortic aneurysms (AAA)", "setting": "[3]; daily subcutaneous administration of 50 μM", "result": "prevented"},
      {"measurement": "acceleration of plaque growth in the aortic root", "setting": "[3]; daily subcutaneous administration of 50 μM, 28 days angiotensin II", "result": "prevented"},
      {"measurement": "mice with abdominal aortic aneurysm (AAA) present", "setting": "[3]; peptide-treated mice, both experiments (Exp #1, Exp #2), controls 8/10 and 6/8", "result": "1/8"},
      {"measurement": "activity of matrix degrading enzymes (MMP-2/9) in bone-marrow derived macrophages", "setting": "[4]", "result": "inhibited"}
    ]}
  ]
}
